These results are taken from a melting point compilation (Tetko et al.; mined from patent text by program, amines drawn as free bases though some values may be those of a salt).

Each structure is given as a SMILES string.

The term melting point denotes the temperature, or range, at which the solid turns liquid.

In the case of `CC(O)c1nc(NCCCOc2cccc(CN3CCCCC3)c2)n(C)n1` (stereo not given), the melting point is 67 to 68 °C.
Compound `C=C(C)OC(=O)N1C(=O)C(C)N(C(=O)OC(=C)C)c2ccncc21` (racemic) returned a melting point of 96 to 97 °C.
In turn, `CCCC(C)Oc1cc(-n2c(=O)cc(C(F)(F)F)n(C)c2=O)c(F)cc1Cl` (stereo not given) had a melting point of 94 to 97 °C.
Compound `CS(=O)(=O)c1cc(N)c([N+](=O)[O-])cc1N` gave a melting point of 221 °C.
In the case of `COc1ccccc1C(=CC=O)c1ccccc1OC` it was 59.5 to 61.5 °C; in that of `CS(=O)(=O)Nc1ccc(CCCC(=O)OCc2ccccc2)cc1`, 88 to 89 °C.
As to `COc1cc2ccc(CC(=S)N3CCOCC3)cc2cc1OC`, the melting point fell in the range of 158 to 161 °C.
In the case of `Cc1cccc2c(=O)c3cccc(-c4ccccc4)c3oc12` it was 140 to 141 °C; in that of `CC(C)NCC(O)COc1ccccc1-c1ccc(=S)[nH]n1` (stereo not given), 166 to 168 °C; in that of `COC(=O)Cc1csc(NC(=O)C(CC2CCCC2)c2ccc(Cl)c(Cl)c2)n1` (stereo not given), 150 to 151 °C.
In the case of `Fc1cc(Br)c2ccccc2c1Cl` it was 75 to 76 °C; in that of `Cc1ccc(-n2c3ccc(C=O)cc3c3cc(C=O)ccc32)cc1`, 229 to 230 °C; in that of `O=c1cnn(-c2cc(Cl)c(C(c3ccc(Cl)cc3)c3nc(-c4ccccc4)no3)c(Cl)c2)c(=O)[nH]1` (stereo not given), 128 °C.
In the case of `CN1CCN(c2ccc(C(=O)NC3CCCNC(=O)C3)cc2)CC1` (stereo not given) it was 232 to 234 °C; in that of `c1ccc2c(c1)Cn1cccc1-c1nccn1-2`, 202 to 203 °C; in that of `CC(C)(C)C1=NC(=Cc2[nH]c(C(C)(C)C)c3ccccc23)c2ccccc21`, 195 °C.
Compound `COc1cc(COc2nn(-c3ccccc3)cc2/C=C/P(=O)(OC(C)C)OC(C)C)ccc1OCc1nc(-c2ccco2)oc1C` registered a melting point of 152 to 153 °C.
On to `O=C(Cn1cncn1)c1cccc2ccccc12`, for which the melting point amounted to 130 °C.
Take `Nc1ccccc1OCCCCCN1CCC(OC(c2ccccc2)c2ccccc2)CC1`: the melting point is 80 to 81 °C.
Take `CC(C)c1ccc(N(Cc2ccc(N(C)C)cc2)C(=O)C2CCCc3c(O)ccc(F)c32)cc1` (stereo not given): the melting point came to 209 °C.
The figure for `COc1cc(CO)c2oc(-c3ccc(OC)c(F)c3)cc2c1` is 128 to 130 °C; for `CCCn1ccn(-c2ccc(N3CCN(c4ccc(OC)cc4)CC3)cc2)c1=O` it is 184 °C.
As for `Cc1cc(C)cc(OC(C)(C)C(=O)O[C@H]2C[C@H](O)C=C3C=C[C@H](C)[C@H](CC[C@@H]4C[C@@H](O)CC(=O)O4)[C@H]32)c1`, the melting point was in the range of 129 to 131 °C.
In the case of `COC(=O)c1ccc(OC2=C3N=C4CCCCC4=C3C(Cc3ccc(OC)cc3)C=C2)o1` (stereo not given) it was 79 to 80 °C.
In the case of `CC(C)(C)OC(=O)[C@@H]1C[C@H](C(=O)OC(C)(C)C)N1` it was 47 to 48.5 °C; in that of `CN(C)CC(O)COc1ccc(C=CC(=O)N2CCc3c([nH]c4ccccc34)C2c2ccc3c(c2)CCO3)cc1` (stereo not given), 138 °C.
In the case of `O=c1oc(=O)c2ccsc2c2sccc12` it was 260 to 263 °C.
In turn, `CCC(C)CNC(=O)c1ccc2cccc(Cc3ccc(C(=O)NS(=O)(=O)c4ccccc4C)cc3OC)c2c1` (stereo not given) came in with a melting point of 204 °C.
In the case of `COC(=O)c1cn2c(=O)c(Br)c(C)nc2s1` it was 199 to 201 °C; in that of `CN(C)c1nc(N)nc2c1sc(=O)n2C1OC(CO)C(O)C1O` (stereo not given), above 112 °C; in that of `CC(C)NC(=O)Nc1ccnnc1`, 206 to 209 °C.
The figure for `CC(C)c1oc(C=Cc2ccccc2)nc1CC(=O)O` is 155 to 156 °C; for `O=C(O)C1=Cc2cc(Br)ccc2OC1C(F)(F)F` (stereo not given) it is 190 to 191 °C.
In the case of `CC1SC(=O)N(C(=O)C2CC3CCC2(C)C3(C)C)N=C1c1ccc2c(c1)CCCN2C(=O)c1ccc2c(c1)OCO2` (stereo not given) it was 216 to 217 °C; in that of `Cn1cc(C(=O)c2ccnc(Cl)c2)cc1C(=O)c1ccc(Cl)cc1`, 182 to 184 °C; in that of `CN(C)c1ccc(-c2cc(C(F)(F)F)c3c(-c4ccccc4)n[nH]c3n2)cc1`, 227 °C.
As for `CN1C(=O)COc2cc3c(cc21)C1(CO3)C(=O)Nc2ccccc21` (stereo not given), the melting point is above 250 °C.
The figure for `O=C(O)Cc1c(C(=O)c2cccs2)[nH]c2cc(Cl)ccc12` is 177 to 178 °C; for `Cc1nc(C)c(CC(=O)O)c(-c2ccccc2)c1CC(=O)O` it is 137 to 138 °C; for `CCCCC(=O)C1(Nc2ccccc2)CCN(CCc2ccccc2)CC1` it is 71.3 °C.
For the compound `Fc1cccc(Cl)c1-c1nc(F)n(-c2ccccc2C(F)(F)F)n1`, the melting point is 68 to 70 °C.
`COC(=O)c1cn(S(=O)(=O)c2ccccc2)c2ncc([N+](=O)[O-])cc12` came in with a melting point of 195 to 196 °C.
Turning to `COc1nc(CC(=O)O)ccc1NC(=O)Nc1ccccc1Br`, the melting point lay within 195 to 197 °C.
The figure for `CCOC(=O)c1ccc(N=C(Nc2ccc(C(=O)OCC)cc2)c2ccc(C#N)cc2)cc1` is 205 to 213 °C; for `ClCc1nc2cc(Cl)cc(Cl)c2o1` it is 52 to 53 °C; for `O=C1Nc2ccc(F)cc2C1CCCCN1CCN(c2ccc(F)cc2)CC1` (stereo not given) it is 135 to 137 °C.
In the case of `CON(C)C(=O)Nc1ccc(OCCc2cccc(C)n2)cc1` it was 96 to 97 °C; in that of `OCc1cccc(Nc2nc(Oc3ccccc3)nc(Oc3ccccc3)n2)c1`, 49 to 52 °C; in that of `N#Cc1ccc(NC(=O)c2cccc(OCc3ccc(Cl)cn3)c2)cc1`, 168 to 169 °C.
In the case of `CCCOc1ccccc1C(=O)Nc1ccncc1C(N)=O` it was 135 to 136 °C; in that of `CC(=O)NCC1CN(c2ccc(N3CCN(c4nnc(C5CC5)s4)CC3)c(F)c2)C(=O)O1` (stereo not given), 217 to 218 °C; in that of `CN1CCN2c3ccccc3Cn3c(c(C=O)c4ccccc43)C2C1` (stereo not given), 260 to 266 °C.
`COc1ccc2c(c1)c(Cc1cc(=O)n(-c3ccccc3)[nH]1)c(C)n2C(=O)c1ccc(Cl)cc1` came in with a melting point of 148 to 150 °C.
The figure for `CNC(=NS(C)(=O)=O)NCCCCc1csc(NC(N)=NCCO)n1` is 128 to 132 °C; for `O=C(Nc1cccc2c(-n3ccnc3)c(CO)cnc12)c1c(Cl)cccc1Cl` it is 205 to 207 °C.
The figure for `CNC(=O)N(c1ccccc1)c1cccc2ccccc12` is 146 °C; for `CC(C)(C)c1ccc(C(=O)Nc2cn3cc(C(F)(F)F)ccc3n2)cc1` it is 234 to 235 °C; for `CNC(=O)c1ccccc1Nc1nc(Nc2cc3c(cc2OC)CCOC(=O)N3C)ncc1Cl` it is 256 to 258 °C.
The figure for `c1c(NC23CC4CC(CC(C4)C2)C3)nc(N2CCCC2)nc1N1CCNCC1` is 152 to 156 °C; for `COC(=O)C1(C)COC(c2nc(-c3ccc(F)cc3)c(-c3ccnc(S(C)(=O)=O)n3)[nH]2)OC1` (stereo not given) it is 186 to 187 °C.
Turning to `C[C@@H](n1cnc2cc(Cl)ccc2c1=O)[C@](O)(Cn1cncn1)c1ccccc1F`, the melting point was 124 to 129 °C.
The figure for `COC(=O)c1ccc(C2=NC(C)(C)Cc3cc(OC)c4c(c32)CC(C)(C)O4)cc1NC(=O)C(F)(F)F` is 146 to 147 °C.
The figure for `Fc1cccc(COc2ccc(Nc3ncnc4sc(C#Cc5nccs5)cc34)cc2Cl)c1` is 204 °C.
In the case of `CC(C)=CCCC(C)=CCOc1ccc(C(=O)NCCc2ccccn2)cc1` it was 67 to 69 °C; in that of `CCn1cc(C(=O)O)c(=O)c2cc(F)c(N3Cc4ccccc4C3)cc21`, above 300 °C; in that of `CCCCCCCCCCCCCCCCOC(=O)C(C)Nc1cccc(O)c1` (stereo not given), 35 to 40 °C.
For the compound `O=C1CCn2nc(-c3ccc(F)cc3)c(-c3ccncc3)c2N1`, the melting point was above 250 °C.
In the case of `CCn1cc(C(=O)O)c(=O)c2cc(F)c(N3CCNCC3)c(C)c21` it was 153 to 156 °C.
The figure for `CCCCN(CCCC)c1ccc(C=CC2=CC(=CC=CC3=C(C#N)C(=C(C#N)C#N)OC3(C)C)CC(C)(C)C2)c(OC)c1` is 228 to 230 °C.
In the case of `O=C(Nc1ccc(-c2cnc(-c3ccc(NC(=O)C4CCCCC4)cc3)[nH]2)cc1)c1cccnc1` it was 315 to 317 °C; in that of `OC1CSC(Oc2cccnc2-c2ccc(OC(F)(F)F)cc2)C(O)C1O` (stereo not given), 114 to 119 °C.
For the compound `CCOC(=O)CCCCCOc1ccc(C(=O)Nc2ccccc2S(=O)(=O)c2ccccc2-c2nnn[nH]2)cc1`, the melting point was in the range of 180 to 181 °C.
Turning to `Cc1sc(-c2cnc3ccccc3c2)nc1O`, the melting point lay within 279 to 280 °C.
In the case of `NS(=O)(=O)c1c(Cl)ccc(NC(=O)Nc2cccc(Cl)c2Cl)c1O` it was 241 to 242 °C; in that of `Oc1ccc(Cn2ccn(C3CCc4ccccc4C3)c2=S)cc1O` (stereo not given), 173 to 174 °C.
The figure for `CC(C)(C)c1cc(/C=C/c2nnc(N)o2)cc(C(C)(C)C)c1O` is 221 °C; for `C=CC(=O)CCC1=CC(=O)NC1=O` it is 77 to 78 °C.
In the case of `CC(=O)Oc1ccc(-c2ccc(F)cc2)cc1C(=O)O` it was 134 to 137 °C; in that of `COC(=O)C1CCc2sc3ccccc3c2C1=O` (stereo not given), 158 to 160 °C.
With `C=CC(=O)N1Cc2ccccc2SC(Cl)C1` (stereo not given), the melting point fell in the range of 66 to 68 °C.
The figure for `O=C1c2ccc(OCCN3CCOCC3)cc2C(=O)c2ccc(OCCN3CCOCC3)cc21` is 200 to 201 °C; for `COC(=O)COc1cc2c(c3c1c(C(=O)C(N)=O)c(C)n3Cc1ccccc1Br)CCC2` it is 200 to 207 °C.
Turning to `CCCCc1nc(O)c(CC(=O)O)c(=O)n1Cc1ccc(C(=O)O)cc1`, the melting point turned out to be 260 °C.
`CCS(=O)(=O)Nc1ccc2[nH]cc(C3CCN(C)CC3)c2c1` gave a melting point of 176 to 178 °C.
`CCC(C)(C)c1ccc(OCCCNC(=O)c2cc(OS(=O)(=O)CCCOc3ccc(N)cc3)c3ccccc3c2O)c(C(C)(C)CC)c1` showed a melting point of 125 to 126 °C.
